{"source": "PubChem BioAssay AID1872", "about": "(NMMLSC, 2009)", "note": "Activity calls are given as the source filed them. No rule for the calls is given here."}
{"molecular_target": "Regulator of G-protein signaling 4 (Homo sapiens) (UniProt P49798)", "sequence (P49798 whole entry, looked up)": "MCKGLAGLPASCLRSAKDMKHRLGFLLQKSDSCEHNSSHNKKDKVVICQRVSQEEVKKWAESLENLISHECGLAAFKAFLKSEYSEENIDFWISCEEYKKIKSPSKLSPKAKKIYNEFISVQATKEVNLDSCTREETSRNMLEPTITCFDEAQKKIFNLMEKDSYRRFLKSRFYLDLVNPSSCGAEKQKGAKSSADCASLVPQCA", "assay": "RGS4-Galphao interaction modulators, dose response, biochemical, bead-based flow cytometry, multiplex (AID 1872)", "conditions": "Bead-based flow cytometry RGS4-Galphao binding"}
{"smiles": "CCOC(=O)N=Nc1c(O)n(C)c2ccccc12", "EC50": "> 30 µM (inactive)"}
{"smiles": "COc1ccc(Br)cc1/C=N/Nc1cccc(C(=O)O)c1", "EC50": "> 30 µM (inactive)"}
{"smiles": "CC(C)Sc1nc2ccc(N3C(=O)C4CCCCC4C3=O)cc2s1", "note": "(configuration not stated)", "EC50": "> 30 µM (inactive)"}
{"smiles": "CCOC(=O)C1=C(C)NC(C)=C(C(=O)OCCNC(=O)c2cccnc2)C1c1cccc([N+](=O)[O-])c1", "note": "(configuration not stated)", "EC50": "> 30 µM (inactive)"}
{"smiles": "O=c1[nH]c(=S)n(Cc2ccco2)c(O)c1C=NCc1cccs1", "EC50": "> 30 µM (inactive)"}
{"smiles": "CN(C)[C@@H]1C(=O)C(C(=O)NCN2CCCC2)=C(O)[C@@]2(O)C(=O)C3=C(O)c4c(O)cccc4[C@@](C)(O)C3CC12", "note": "(some centres not stated)", "EC50": "11.8 µM"}
{"smiles": "CCOC(=O)/C(C(=O)Nc1ccccc1Cl)=C1/NC(C)(C)Cc2ccccc21", "EC50": "inactive"}
{"smiles": "O=C1CCCC2=C1C(c1cccs1)n1ncnc1N2", "note": "(configuration not stated)", "EC50": "inactive"}
{"smiles": "NS(=O)(=O)c1ccc(N/N=C/c2ccc(O)c(O)c2O)c([N+](=O)[O-])c1", "EC50": "3.56 µM"}
{"molecular_target": "Regulator of G-protein signaling 4 (Homo sapiens) (UniProt P49798)", "assay": "RGS4-Galphao interaction modulators, dose response, biochemical, bead-based flow cytometry, multiplex (AID 1872)", "conditions": "Bead-based flow cytometry RGS4-Galphao binding; measured here: Ki for RGS4-Galphao", "units": {"Ki": "µM"}}
{"smiles": "Nc1c(C(=O)NCC2CCCO2)sc2nc3c(c(-c4ccco4)c12)CC/C3=C\\c1ccco1", "note": "(configuration not stated)", "Ki": 2.77}
{"smiles": "CCN1/C(=C/C=C/C=C/c2sc3ccccc3[n+]2CC)Sc2ccccc21", "Ki": 2.9}
{"smiles": "O=C(O)C[C@@H]1C(=O)O[C@@H]2C(COC(=O)c3cc(O)c(O)c(O)c3)O[C@@H](OC(=O)c3cc(O)c(O)c(O)c3)[C@@H](OC(=O)c3cc(O)c(O)c4c3[C@H]1[C@H](O)C(=O)O4)[C@H]2OC(=O)c1cc(O)c(O)c(O)c1", "note": "(some centres not stated)", "Ki": 0.88}
{"smiles": "CC(=O)N(O)CCCCCNC(=O)CCC(=O)N(O)CCCCCNC(=O)CCC(=O)N(O)CCCCCN", "Ki": 1.34}
{"smiles": "O=C1CCC(=O)N(O)CCCCCNC(=O)CCC(=O)N(O)CCCCCNC(=O)CCC(=O)N(O)CCCCCN1", "Ki": 2.2}
{"smiles": "CCN=c1scc(C)n1/N=C/c1ccc(O)c(O)c1O", "Ki": 21.5}
{"smiles": "CCC(=O)NC1=C(Cl)C(=O)C(NC(=O)CC)=C(Cl)C1=O", "Ki": 4.61}
{"smiles": "NS(=O)(=O)c1ccc(CNC(=O)/C=C/c2ccco2)cc1", "Ki": 7.78}
{"smiles": "O=C1OCC2OC(O)C(O)C(O)C2OC(=O)c2cc(O)c(O)c(O)c2-c2c(O)c(O)c3oc(=O)c4c(c(O)c(O)c5oc(=O)c2c3c54)-c2c1cc(O)c(O)c2O", "note": "(configuration not stated)", "Ki": 2.05}
{"smiles": "CCN(CC)S(=O)(=O)c1cccc(C(=O)N/N=C/c2ccc(O)c(O)c2O)c1", "Ki": 4.73}
{"smiles": "O=C(COc1ccccc1C(=O)N/N=C\\c1ccc(O)c(O)c1)N/N=C/c1ccc(O)c(O)c1", "Ki": 3.24}
{"smiles": "COC(=O)CCC(=O)Nc1sc(C)c(C)c1C(N)=O", "Ki": 6.49}
{"smiles": "CN=c1scc(C)n1/N=C/c1ccc(O)c(O)c1O", "Ki": 12}
{"smiles": "O=C(Cc1csc(N2CCOCC2)n1)N/N=C/c1ccc(O)c(O)c1O", "Ki": 14.8}
{"smiles": "O=C(OCC1O[C@@H](OC(=O)c2cc(O)c(O)c(O)c2)[C@@H](OC(=O)c2cc(O)c(O)c(O)c2)[C@@H](OC(=O)c2cc(O)c(O)c(O)c2)[C@@H]1OC(=O)c1cc(O)c(O)c(O)c1)c1cc(O)c(O)c(O)c1", "note": "(some centres not stated)", "Ki": 0.38}
{"smiles": "CCC(=O)NC(c1ccc(C)cc1)c1cc([N+](=O)[O-])c2cccnc2c1O", "note": "(configuration not stated)", "Ki": 10.1}
{"smiles": "Cc1cc(Cl)ccc1N=c1ssnc1Cl", "Ki": 4.58}
{"smiles": "CN(C)[C@@H]1C(=O)C(C(=O)NCN2CCCC2)=C(O)[C@@]2(O)C(=O)C3=C(O)c4c(O)cccc4[C@@](C)(O)C3CC12", "note": "(some centres not stated)", "Ki": 10}
{"smiles": "COc1ccc(C2=CC(=O)C=CC2=O)cc1", "Ki": 19.7}
{"smiles": "O=C1C(Cl)=C(N2CCCCC2)C(=O)C(Cl)=C1c1cnc(N2CCCCC2)s1", "Ki": 1.55}
{"smiles": "CN1CCN(C2=C(Cl)C(=O)C(c3cnc(N4CCCCC4)s3)=C(Cl)C2=O)CC1", "Ki": 0.3}
{"smiles": "COCCCNC(=O)c1ccc2c3c(onc13)-c1ccccc1C2=O", "Ki": 2.62}
{"smiles": "O=C(O[C@@H]1OC2COC(=O)c3cc(O)c(O)c(O)c3-c3c(cc(O)c(O)c3O)C(=O)O[C@@H]([C@H]1O)[C@@H]2O)c1cc(O)c(O)c(O)c1", "Ki": 3.51}
{"smiles": "CN(C)c1ncc(C2=C(Cl)C(=O)C(N3CCCC3)=C(Cl)C2=O)s1", "Ki": 1.95}
{"smiles": "CC1(C)OC(=O)C(=Cc2ccc(-c3ccc(S(N)(=O)=O)cc3)o2)C(=O)O1", "Ki": 8.26}
{"smiles": "CCNc1ccc2noc3c2c1C(=O)c1ccccc1-3", "Ki": 22.5}
{"smiles": "COc1ccc(OC)c(CCNC(=O)Cn2sc3nc(C)cc(C)c3c2=O)c1", "Ki": 5.6}
{"smiles": "NS(=O)(=O)c1ccc(N/N=C/c2ccc(O)c(O)c2O)c([N+](=O)[O-])c1", "Ki": 3.03}
